Tested on: C57B6/J mice
Assay: Psilocybin induced head twitch response (HTR) in mice, automated system with implanted ear magnets
Assay type: in vivo
Protocol: Illustrated herein is a dose-dependent decrease in hallucinogenic response (head-twitch response, HTR) to psilocybin administration by adding a PDE9 inhibitor.
In this experiment, it was determined whether the number of head twitches in 10 minutes in response to psilocybin administration in 7-10 week old C57B6/J mice (equal numbers of male and female) were reduced by PF-4447943, a prototypical PDE9 inhibitor. The experiment began with the mice receiving a 20-minute pretreatment with PF-4447943 or its associated vehicle (5% Cremophor, 5% dimethyl sulfoxide (DMSO), and 90% saline) followed by the test dose of psilocybin. Head twitch was assessed for 10 minutes in an automated system using implanted magnets in the mouse's ears. At least one week elapsed prior to reuse, and mice were used maximally twice. […] For instance, average HTR over 10 min in mice receiving 3 mg/kg psilocybin and no PF-4447943 was about 30, while average HTR over 10 min in mice receiving 3 mg/kg psilocybin plus 3 mg/kg PF-4447943 was about 20.
In another experiment, a psilocybin dose-response curve was generated in the presence and absence of a fixed dose of pre-administered PF-4447943. FIG. 2 depicts the results of HTR in mice receiving administration of a fixed dose of PF-4447943 (3 mg/kg IP) and various doses of psilocybin (0, 0.3, 1, 3, 10 mg/kg IP), in comparison with administration of psilocybin plus the PF-4447943 vehicle alone as a control.

Row | Structure (SMILES) | HTR after psilocybin following pretreatment with PF-4447943 compared to pretreatment with the PF-4447943 vehicle (20-minute pretreatment, head twitch assessed for 10 minutes, FIG. 1) | average HTR over 10 min (mice receiving 3 mg/kg psilocybin plus 3 mg/kg PF-4447943 (20-minute pretreatment), FIG. 1) | reduction of HTR (pretreatment with 3 mg/kg PF-4447943 IP, across all doses of psilocybin (0, 0.3, 1, 3, 10 mg/kg IP) vs psilocybin plus vehicle, FIG. 2) | average HTR over 10 min (mice receiving 3 mg/kg psilocybin and no PF-4447943 (vehicle pretreatment), FIG. 1)
1 | C[C@@H]1CN(Cc2ncccn2)C[C@H]1c1nc2c(cnn2C2CCOCC2)c(=O)[nH]1 [PF-4447943, 6-[(3S,4S)-4-methyl-1-(pyrimidin-2-ylmethyl)pyrrolidin-3-yl]-1-(tetrahydro-2H-pyran-4-yl)-1,5-dihydro-4H-pyrazolo[3,4-d]pyrimidin-4-one] | reduced | about 20 | about 40% | –
2 | CN(C)CCc1c[nH]c2cccc(OP(=O)(O)O)c12 [psilocybin, [3-[2-(dimethylamino)ethyl]-1H-indol-4-yl]dihydrogen phosphate] | – | – | – | about 30

— patent US20250360137A1, “ENHANCEMENT OF THE EFFICACY OF SEROTONERGIC PSYCHEDELIC DRUGS IN THE TREATMENT OR PREVENTION OF CERTAIN NEUROPSYCHIATRIC DISORDERS THROUGH INHIBITION OF TYPE-9 PHOSPHODIESTERASES” (Freedom Biosciences, Inc., priority 2022, published 2025)
